Measurements: patent US9446039B2, “Aminoheteroaryl compounds as MTH1 inhibitors” (CEMM—FORSCHUNGSZENTRUM FÜR MOLEKULARE MEDIZIN GMBH, priority 2012, dated 2016)

Legend:
Assay type in all cases: binding
[1] = target: SW480 colon carcinoma cells lysate proteins (Homo sapiens, UniProt P67936); conditions: PreyGene TPM4
[2] = target: T1, SW480 colon carcinoma cells lysate proteins (Homo sapiens, UniProt P30041); conditions: PreyGene PRDX6
T1 sequence (P30041 1-224): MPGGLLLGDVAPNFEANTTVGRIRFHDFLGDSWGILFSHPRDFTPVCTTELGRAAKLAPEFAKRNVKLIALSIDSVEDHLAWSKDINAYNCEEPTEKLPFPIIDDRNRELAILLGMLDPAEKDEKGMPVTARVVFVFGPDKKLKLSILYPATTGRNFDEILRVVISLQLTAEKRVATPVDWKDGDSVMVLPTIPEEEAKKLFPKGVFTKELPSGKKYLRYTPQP

[3] = target: SW480 colon carcinoma cells lysate proteins (Homo sapiens, UniProt Q15365); conditions: PreyGene PCBP1; SW480 cells
SW480 colon carcinoma cells lysate proteins (Homo sapiens, UniProt Q15365), sequence (Q15365 whole entry): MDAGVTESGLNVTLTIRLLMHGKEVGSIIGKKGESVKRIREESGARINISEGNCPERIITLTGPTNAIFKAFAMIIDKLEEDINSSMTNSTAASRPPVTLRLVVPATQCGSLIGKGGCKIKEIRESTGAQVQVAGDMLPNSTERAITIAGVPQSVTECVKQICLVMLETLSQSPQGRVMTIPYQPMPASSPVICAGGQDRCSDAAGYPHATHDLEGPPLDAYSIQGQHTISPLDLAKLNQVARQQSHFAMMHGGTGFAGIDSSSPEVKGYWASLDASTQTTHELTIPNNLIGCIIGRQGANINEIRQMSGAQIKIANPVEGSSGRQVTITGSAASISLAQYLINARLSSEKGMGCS

[4] = target: SW480 colon carcinoma cells lysate proteins (Homo sapiens, UniProt Q9UBR2); conditions: PreyGene CTSZ
SW480 colon carcinoma cells lysate proteins (Homo sapiens, UniProt Q9UBR2), sequence (Q9UBR2 62-303): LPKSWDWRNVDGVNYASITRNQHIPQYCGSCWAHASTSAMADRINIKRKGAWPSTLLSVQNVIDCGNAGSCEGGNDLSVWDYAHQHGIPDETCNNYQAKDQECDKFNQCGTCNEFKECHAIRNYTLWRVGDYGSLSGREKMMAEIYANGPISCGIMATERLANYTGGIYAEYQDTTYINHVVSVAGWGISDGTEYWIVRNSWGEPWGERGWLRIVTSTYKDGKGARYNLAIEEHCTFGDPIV

[5] = target: SW480 colon carcinoma cells lysate proteins (Homo sapiens, UniProt Q13200); conditions: PreyGene PSMD2
SW480 colon carcinoma cells lysate proteins (Homo sapiens, UniProt Q13200), sequence (Q13200 whole entry): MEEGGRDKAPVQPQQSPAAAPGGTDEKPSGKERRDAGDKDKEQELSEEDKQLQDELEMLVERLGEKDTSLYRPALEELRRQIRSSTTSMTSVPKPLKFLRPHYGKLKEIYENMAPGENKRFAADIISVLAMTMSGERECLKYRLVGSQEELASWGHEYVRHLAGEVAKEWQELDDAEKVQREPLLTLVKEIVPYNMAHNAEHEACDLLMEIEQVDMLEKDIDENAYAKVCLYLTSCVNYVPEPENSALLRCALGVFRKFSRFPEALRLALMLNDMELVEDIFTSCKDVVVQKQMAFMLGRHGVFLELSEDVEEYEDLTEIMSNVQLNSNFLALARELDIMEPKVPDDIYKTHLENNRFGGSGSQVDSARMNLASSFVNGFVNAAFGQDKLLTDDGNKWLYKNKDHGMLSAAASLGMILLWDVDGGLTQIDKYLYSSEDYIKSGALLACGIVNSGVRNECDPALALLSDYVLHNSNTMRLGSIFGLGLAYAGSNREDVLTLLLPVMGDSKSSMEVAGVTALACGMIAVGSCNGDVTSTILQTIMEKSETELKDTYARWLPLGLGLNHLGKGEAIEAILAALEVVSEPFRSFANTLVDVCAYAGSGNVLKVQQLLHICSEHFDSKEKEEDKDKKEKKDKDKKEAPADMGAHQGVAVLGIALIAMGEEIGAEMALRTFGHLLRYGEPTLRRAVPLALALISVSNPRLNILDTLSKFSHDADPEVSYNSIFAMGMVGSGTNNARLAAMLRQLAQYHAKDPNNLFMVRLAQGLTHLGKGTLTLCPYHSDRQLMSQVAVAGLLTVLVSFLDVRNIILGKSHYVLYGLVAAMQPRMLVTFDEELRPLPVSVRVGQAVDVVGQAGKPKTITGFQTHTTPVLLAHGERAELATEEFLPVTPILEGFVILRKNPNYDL

[6] = target: T2, SW480 colon carcinoma cells lysate proteins (Homo sapiens, UniProt P29373); conditions: PreyGene CRABP2
T2 sequence (P29373 1-138): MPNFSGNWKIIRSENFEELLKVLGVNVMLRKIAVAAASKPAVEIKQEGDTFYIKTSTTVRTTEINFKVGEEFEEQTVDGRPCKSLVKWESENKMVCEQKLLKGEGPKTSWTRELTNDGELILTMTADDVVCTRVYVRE

[7] = target: T3, SW480 colon carcinoma cells lysate proteins (Homo sapiens, UniProt P41250); conditions: PreyGene GARS
T3 sequence (P41250 37-739): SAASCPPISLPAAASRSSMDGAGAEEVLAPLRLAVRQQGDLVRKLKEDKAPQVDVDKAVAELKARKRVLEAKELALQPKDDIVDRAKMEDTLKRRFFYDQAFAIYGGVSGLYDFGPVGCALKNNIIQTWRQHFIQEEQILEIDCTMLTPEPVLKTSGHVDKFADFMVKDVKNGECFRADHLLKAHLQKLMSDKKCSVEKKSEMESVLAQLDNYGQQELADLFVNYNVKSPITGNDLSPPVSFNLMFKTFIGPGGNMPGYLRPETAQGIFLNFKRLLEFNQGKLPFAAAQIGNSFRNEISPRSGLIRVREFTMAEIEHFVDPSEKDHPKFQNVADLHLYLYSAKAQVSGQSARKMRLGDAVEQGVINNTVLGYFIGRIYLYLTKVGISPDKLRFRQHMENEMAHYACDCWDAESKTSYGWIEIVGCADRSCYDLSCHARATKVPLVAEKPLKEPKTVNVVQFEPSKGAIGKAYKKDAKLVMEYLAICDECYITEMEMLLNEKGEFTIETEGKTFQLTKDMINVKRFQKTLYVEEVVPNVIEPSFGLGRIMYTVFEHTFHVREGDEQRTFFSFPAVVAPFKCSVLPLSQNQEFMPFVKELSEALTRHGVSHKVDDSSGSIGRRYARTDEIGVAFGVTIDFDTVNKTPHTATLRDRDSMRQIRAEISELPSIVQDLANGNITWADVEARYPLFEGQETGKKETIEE

[8] = target: T4, SW480 colon carcinoma cells lysate proteins (Homo sapiens, UniProt P50454); conditions: PreyGene SERPINH1
T4 sequence (P50454 19-418): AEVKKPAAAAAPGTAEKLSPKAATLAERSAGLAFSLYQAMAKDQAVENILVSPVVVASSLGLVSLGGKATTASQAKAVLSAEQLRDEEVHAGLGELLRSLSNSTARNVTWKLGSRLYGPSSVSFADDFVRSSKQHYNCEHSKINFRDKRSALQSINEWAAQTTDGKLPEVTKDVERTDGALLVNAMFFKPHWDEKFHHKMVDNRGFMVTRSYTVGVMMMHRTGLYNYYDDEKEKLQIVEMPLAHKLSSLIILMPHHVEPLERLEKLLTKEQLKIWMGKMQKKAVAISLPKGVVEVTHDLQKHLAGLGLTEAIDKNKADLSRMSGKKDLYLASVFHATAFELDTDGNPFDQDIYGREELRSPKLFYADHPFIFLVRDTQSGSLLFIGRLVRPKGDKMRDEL

[9] = target: T5, SW480 colon carcinoma cells lysate proteins (Homo sapiens, UniProt P06454); conditions: PreyGene PTMA
T5 sequence (P06454 1-111): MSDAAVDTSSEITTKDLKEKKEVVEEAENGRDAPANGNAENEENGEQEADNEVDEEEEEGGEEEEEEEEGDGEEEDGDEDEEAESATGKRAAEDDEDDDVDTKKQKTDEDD

SW480 colon carcinoma cells lysate proteins (Homo sapiens, UniProt P67936), sequence (P67936 whole entry): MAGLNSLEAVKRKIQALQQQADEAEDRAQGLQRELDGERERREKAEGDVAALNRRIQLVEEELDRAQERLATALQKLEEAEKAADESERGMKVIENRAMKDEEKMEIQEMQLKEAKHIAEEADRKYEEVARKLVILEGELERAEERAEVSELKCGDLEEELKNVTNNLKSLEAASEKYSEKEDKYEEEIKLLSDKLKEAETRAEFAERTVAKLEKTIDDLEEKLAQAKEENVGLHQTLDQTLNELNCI

`C[C@H](Oc1cc(-c2cnn(C3CCNCC3)c2)cnc1N)c1c(Cl)ccc(F)c1Cl` [(5)-crizotinib] was tested, and the AvgP [1] was 0.4193, the “SC.Exp. 1-1” value [1] was 5 and the “SC.Exp. 1-2” value [1] was 2. The “SC.Exp. 2-1” value [1] was 0, the “SC.Exp. 2-2” value [1] was 0 and the “Sum (SC.Exp.)” value [1] was 7. For the same molecule, the AvgP [2] was 0.1992, the “SC.Exp. 1-1” value [2] was 8 and the “SC.Exp. 1-2” value [2] was 8. The “SC.Exp. 2-1” value [2] was 0, the “SC.Exp. 2-2” value [2] was 0 and the “Sum (SC.Exp.)” value [2] was 16. For the same molecule, the AvgP [3] was 0, the “SC.Exp. 1-1” value [3] was 0 and the “SC.Exp. 1-2” value [3] was 1. The “SC.Exp. 2-1” value [3] was 0, the “SC.Exp. 2-2” value [3] was 0 and the “SC.Exp. Sum” value [3] was 1. For the same molecule, the AvgP [4] was 0.3217, the “SC.Exp. 1-1” value [4] was 2 and the “SC.Exp. 1-2” value [4] was 2. For the same molecule, the “SC.Exp. 2-1” value [4] was 0, the “SC.Exp. 2-2” value [4] was 0 and the “Sum (SC.Exp.)” value [4] was 4. For the same molecule, the AvgP [5] was 0.4359, the “SC.Exp. 1-1” value [5] was 6 and the “SC.Exp. 1-2” value [5] was 5. For the same molecule, the “SC.Exp. 2-1” value [5] was 0, the “SC.Exp. 2-2” value [5] was 0 and the “Sum (SC.Exp.)” value [5] was 11. For the same molecule, the AvgP [6] was 0.2533, the “SC.Exp. 1-1” value [6] was 4 and the “SC.Exp. 1-2” value [6] was 1. The “SC.Exp. 2-1” value [6] was 0, the “SC.Exp. 2-2” value [6] was 0 and the “Sum (SC.Exp.)” value [6] was 5. The AvgP [7] was 0.4818, the “SC.Exp. 1-1” value [7] was 6 and the “SC.Exp. 1-2” value [7] was 7. The “SC.Exp. 2-1” value [7] was 0, the “SC.Exp. 2-2” value [7] was 0 and the “Sum (SC.Exp.)” value [7] was 13. For the same molecule, the AvgP [8] was 0.3843, the “SC.Exp. 1-1” value [8] was 5 and the “SC.Exp. 1-2” value [8] was 6. The “SC.Exp. 2-1” value [8] was 0, the “SC.Exp. 2-2” value [8] was 0 and the “Sum (SC.Exp.)” value [8] was 11. For the same molecule, the AvgP [9] was 0.3707, the “SC.Exp. 1-1” value [9] was 2 and the “SC.Exp. 1-2” value [9] was 2. For the same molecule, the “SC.Exp. 2-1” value [9] was 0, the “SC.Exp. 2-2” value [9] was 0 and the “Sum (SC.Exp.)” value [9] was 4.
